The text below walks through data of ChEMBL document CHEMBL3507680, “University of Dundee, Gates Library screen for HepG2 cell viability”.

Structures are written as SMILES.

This data set is described as follows: Human HepG2 cell viability assay in 384 well format. The data set is classed as toxicity, cell-based. Set-up: dose 125 nL, time 70.5 hour; concentration not given beside the values. The settings on record: HepG2 cells, read-out: Inhibition.
Regarding `O=C(NCC(O)c1ccccc1)Nc1cccs1` (centres undefined), the cytotoxicity at 70.5 h came out at 18.8%. `CC(C)(C)c1c[nH]c([C@@H]2COCCN2C2CCOCC2)n1`: the cytotoxicity at 70.5 h amounted to 12.2%.

Regarding `COc1ccc(CN2CCOC[C@H]2c2nc(-c3ccncc3)c[nH]2)cc1`, the cytotoxicity at 70.5 h was -1.1%. Next, `CC(=O)N1CCN(C(=O)C[C@@H]2C[C@@H](C(C)C)[C@H](CC#N)C=C2C)CC1`: 0.119%; `COc1ccc(-c2cc(CC3(NCc4ccc(C)o4)COC3)no2)cc1`: 6.13%; `Cn1ccnc1CN1C(=O)CO[C@H]2CN(Cc3ccc(F)c(F)c3)C[C@H]21`: 8.11%. In the case of `O=C(c1cc(CC2(NCc3ccccc3)COC2)no1)N1CCCCC1`, the cytotoxicity at 70.5 h is -5.63%.

As to `CCCn1cnc2c1CN(S(=O)(=O)Cc1ccccc1)[C@H](C(=O)OC)C2`, the cytotoxicity at 70.5 h stood at 0.651%. Next, `c1ccc(CCCN2CC[C@H](c3nnc(-c4cccnc4)o3)C2)cc1`: -10.6%; `CS(=O)(=O)N1C[C@@H](F)[C@@H](OCc2nc3ccccc3o2)C1`: 14.3%; `F[C@@H]1CN(Cc2ccccc2)C[C@@H]1OCc1nc2ccccc2[nH]1`: 0.621%.

In the case of `F[C@@H]1CN(CC2CC2)C[C@@H]1OCc1nc2ccc(C(F)(F)F)cc2[nH]1`, the cytotoxicity at 70.5 h came out at 0.533%. Next, `O=C(C1CC1)N1C[C@@H](F)[C@@H](OCc2nc3cc(F)ccc3[nH]2)C1`: -3.11%; `CC(=O)N1C[C@@H](F)[C@@H](OCc2nc3cc(C)c(C)cc3[nH]2)C1`: -0.883%.

As to `COC(=O)c1cccc2nc([C@H]3CCN(C4CCN(C)CC4)C3)oc12`, the cytotoxicity at 70.5 h is -2.72%. Consider `CC(=O)N1CCC(N2CC[C@H](c3nc4cc(C)ccc4o3)C2)CC1`, for which the cytotoxicity at 70.5 h is -1.07%. Then `COC(=O)[C@@H]1Cc2ncn(C(C)C)c2CN1S(=O)(=O)Cc1ccccc1`, with -6.37%; and `COCCOc1ccnc(-c2noc([C@@H]3CCCN3C)n2)c1`, with -3.64%; and `COCc1cc(CC2(NC3CCN(C)CC3)COC2)no1`, with 6.14%. Then `CC(C)CN1C[C@@H]2OCC(=O)N(Cc3nccn3C)[C@@H]2C1`, with 14%. Next, `Cc1ccc(-c2c[nH]c([C@@H]3COCCN3Cc3ncc[nH]3)n2)cc1`: 6.46%. As to `Cc1ccc(-c2c[nH]c([C@@H]3COCCN3Cc3cccnc3)n2)cc1`, the cytotoxicity at 70.5 h is 14.4%. Then `COCCN1C(=O)CO[C@H]2CN(S(=O)(=O)c3ccccc3)C[C@H]21`, with -12.7%; and `COCC(=O)Nc1ccc(-c2noc([C@@H]3CCCN3)n2)cn1`, with -0.348%; and `CC(C)(C)CN1CCC[C@H]1c1nc(-c2cncnc2N)no1`, with -0.753%. With `Cc1cccc(O[C@H]2COCCN(C3CCC3)C2)n1`, the cytotoxicity at 70.5 h is -6.06%. Turning to `CC1(C)[C@H](Cc2cc(CO)on2)C[C@@H]1NCc1ccc(CO)o1`, the cytotoxicity at 70.5 h was determined as 14.7%.

Take `CC(=O)N1CCC(NC2(Cc3cc(CC(C)C)on3)COC2)CC1`: the cytotoxicity at 70.5 h amounted to 3.96%. Next, `Cc1cccc(O[C@H]2COCCN(C3CCOCC3)C2)n1`: -9.61%; `O=C(NC[C@H]1OC[C@@H](NCc2ccccc2)[C@@H]1O)Nc1ccc(F)cc1`: -4.13%.

Consider `O=C(NC[C@H]1O[C@H](Cc2cc(-c3ccccn3)on2)CC[C@@H]1O)C1CC1`, for which the cytotoxicity at 70.5 h was -7.04%. Next, `CC(C)NC(=O)N1CCN2C(=O)N(Cc3ccc(F)cc3)C[C@H]2C1`: -4.66%; `O=C(NC[C@H]1OC[C@@H](NC2COC2)[C@@H]1O)c1ccccc1`: -6.48%; `O=C(NC[C@H]1OC[C@@H](NCc2ccccn2)[C@@H]1O)c1ccncc1`: -1.84%. Next, `CC(C)NC(=O)NC[C@H]1OC[C@@H](NCc2ccncc2)[C@@H]1O`: -3.41%. For `COc1cc(C)c2c(c1C)C[C@H]([C@H](C)C(=O)O)CC2`, the cytotoxicity at 70.5 h was -3.45%. Then `O=C1N[C@@H]2CCN(C(=O)C3CCC3)[C@@H]2C(=O)N1c1ccc(F)cc1`, with 21.8%.

As for `O=C(c1cc(CC2(NCC3CCCCC3)COC2)no1)N1CCCCC1`, the cytotoxicity at 70.5 h is -6.68%.

Take `CN(C)Cc1cc(CC2(NCc3ccccc3Cl)COC2)no1`: the cytotoxicity at 70.5 h is -2.7%. With `CN1CCOC[C@H]1c1nc(-c2ccccc2)c[nH]1`, the cytotoxicity at 70.5 h is -9.46%. Then `O=C(NC[C@H]1OC[C@@H](NC(=O)c2ccccc2)[C@@H]1O)c1ccncc1`, with -0.603%; and `COC(=O)[C@H]1CN(C(C)=O)CCN1C(C)=O`, with -2.71%.

On to `CC(=O)N1CC[C@H]2CC(=O)N(CCc3c[nH]cn3)CC[C@H]2C1`, for which the cytotoxicity at 70.5 h is -2.6%.

In the case of `CCNC(=O)N1CC[C@H]2CC(=O)N(CC(N)=O)CC[C@H]2C1`, the cytotoxicity at 70.5 h is -1.17%. Next, `COCCOc1ncccc1-c1noc([C@@H]2CCCN2C2CCC2)n1`: -10.3%; `COC(=O)c1cccc2nc([C@H]3CCN(Cc4ccccc4F)C3)oc12`: -6.68%. Then `O=C([C@@H]1Cc2[nH]cnc2CN1Cc1cc2ccccc2o1)N1CCCC1`, with 8.38%. `O[C@@H]1C[C@@H](c2nc(-c3ccccc3)no2)N(C2CCOCC2)C1`: the cytotoxicity at 70.5 h was -3.47%.

`O=C(NC[C@H]1C[C@@H]2CCN1C[C@@H]2CN1CCOCC1)Nc1ccccc1`: the cytotoxicity at 70.5 h is -2.16%.

`O=C(NC[C@H]1OC[C@@H](NC2COC2)[C@@H]1O)c1cccs1`: the cytotoxicity at 70.5 h was -15.7%. Then `Cc1cccc(O[C@H]2COCCN(Cc3sc(C)nc3C)C2)n1`, with 10.9%; and `COCC(=O)N[C@H](C)c1onc(-c2ccc(F)cc2)c1C(=O)O`, with -6.83%. Next, `C[C@@H](NC(=O)c1cccn1C)c1c(-c2ccc(Cl)cc2)noc1C(=O)O`: -7.66%.

With `c1ccc(CNC[C@H]2Cn3ccnc3CO2)cc1`, the cytotoxicity at 70.5 h was found to be 4.33%. Then `CCC(=O)NCc1cc(C2CC2)n(C2CCCC2)n1`, with 13.9%; and `O=C(CN1C(=O)CCC1=O)N1CCC(S(=O)(=O)Cc2ccco2)CC1`, with -3.03%; and `Cn1cnnc1S(=O)(=O)C1CCN(C(=O)c2cccs2)CC1`, with -10.5%. `Cn1cnnc1S(=O)(=O)C1CCN(C(=O)c2ccsc2)CC1`: the cytotoxicity at 70.5 h was -9.56%.

As for `Cc1ccc(S(=O)(=O)N2CCC(S(=O)(=O)c3nncn3C)CC2)cc1C`, the cytotoxicity at 70.5 h was -6.93%. Turning to `CNC(=O)CS(=O)(=O)C1CCN(S(=O)(=O)c2cccc(Cl)c2C)CC1`, the cytotoxicity at 70.5 h was -9.92%. Next, `CC(=O)Nc1ccc(CC(=O)N2CC(S(=O)(=O)C3CCCCC3)C2)cc1`: -3.63%; `COC1CCN(c2ccc(NC(=O)Cn3cccn3)cc2)CC1`: -8%; `COC1CCN(c2ccc(NC(=O)Cn3cccc3)cc2)CC1`: -11%.

Turning to `O=C(Cc1ccccc1Cl)Nc1cnn(C2CCOC2)c1` (centres undefined), the cytotoxicity at 70.5 h was -14%.

For the compound `O=C(Nc1cnn(C2CCOCC2)c1)c1ccc2c(c1)OCO2`, the cytotoxicity at 70.5 h was -16%. On to `O=C(Cc1cccs1)Nc1cnn(C2CCOCC2)c1`, for which the cytotoxicity at 70.5 h was -12.8%. With `O=S(=O)(Nc1cnn(C2CCOCC2)c1)c1ccc(Br)cc1`, the cytotoxicity at 70.5 h was -5.21%. Next, `COC(C)(CNS(=O)(=O)c1cn(C)cn1)c1ccccc1F` (centres undefined): 9.94%; `CCC(CNC(=O)C1CCC1)(OC)c1ccccc1` (centres undefined): -1.73%; `CCNC(=O)NCC(CC)(OC)c1ccccc1` (centres undefined): -5.55%.

Turning to `O=C(NC1CC1)C1CCCN(c2cc(-n3cncn3)ncn2)C1` (centres undefined), the cytotoxicity at 70.5 h was found to be 13.5%. On to `O=C(CSC1CCCC1)N1CCN(c2ccc(-n3cncn3)nn2)CC1`, for which the cytotoxicity at 70.5 h is -2.51%. Next, `COC(=O)c1cc(OC)c(OC)cc1N(C)S(C)(=O)=O`: 41.7%. Then `OCc1cnc(Nc2ccccc2)nc1`, with 10.1%; and `COC(=O)C1CCCN1Cc1ccco1` (centres undefined), with -8.41%. Next, `CNCc1ccc(Oc2cncc(C)n2)cc1`: -12.9%.

`N#Cc1ccccc1Cn1cncn1`: the cytotoxicity at 70.5 h is 9.79%. Next, `c1coc(CN2CCC3(CC2)CC(N2CCCC2)CO3)c1` (centres undefined): 33.2%; `Cc1cc(C(=O)N[C@H]2CC[C@@]3(CCC(=O)N3C)CC2)no1`: -9.34%; `Cc1ccsc1C(=O)N1CC2CC1(C(=O)NCc1ccco1)C2`: 13.9%. Then `Cc1ccsc1C(=O)N1CC2CC1(C(=O)NCC1CC1)C2`, with -16.8%; and `CN(C)C(=O)N1CCC2(CCC(C(=O)N3CCCC3)O2)CC1` (centres undefined), with -16.3%; and `CC(=O)N1CCC2(CC1)CN(C(C)=O)CC21CCNC1=O` (centres undefined), with 16.2%. Next, `CCN1C(=O)CCC12CCN(S(=O)(=O)c1ccccc1)CC2`: -4.14%.

As to `O=C1Nc2ccccc2C1C1CCN(C(=O)C2CC2)CC1` (centres undefined), the cytotoxicity at 70.5 h was -6.49%. Next, `COc1ccc(CN2C[C@@H]3CN(S(=O)(=O)C4CC4)C[C@@H]3C2=O)cc1`: -9.53%; `O=C(C1CCCCC1)N1CC2(CCNCC2)C1`: 1.58%; `CCOC1COC2(CCN(Cc3ccco3)CC2)C1` (centres undefined): 18.2%.

Regarding `CC(C)NC(=O)N1CCC2(CC1)C(=O)NCCN2Cc1ccccc1`, the cytotoxicity at 70.5 h was -7.72%. Then `CC(C)C1COC2(CCN(Cc3ccco3)CC2)C1` (centres undefined), with -7.19%. As for `CC(=O)N1C[C@H]2CCCN(Cc3ccc(C)o3)[C@H]2C1`, the cytotoxicity at 70.5 h was -10.5%. Then `CCN1CCN(C)C2(CCN(Cc3cccc(C)n3)CC2)C1=O`, with -9.88%; and `Cc1ccc(CN2CCC3(CC2)C(=O)N(CCO)CCN3C)o1`, with -3.64%. Next, `COc1ccc(CN2C[C@@H]3CN(Cc4ccncc4)C[C@@H]3C2=O)cc1`: -8.45%.
